Reference: publication PMC6050274, “Buparlisib is a brain penetrable pan-PI3K inhibitor” (Scientific Reports, 2018)

How the values were obtained:
LLC-PK1 cells = assay: Conventional transport assay (CTA), diffusion over a cellular monolayer; type: in vitro ADME, porcine; conditions: zosuquidar present, both directions, 100 nM
Source text: We first sought to investigate whether buparlisib (Fig. 1A) is transported by P-gp or BCRP in vitro using concentration equilibrium transport assays (CETAs). CETAs are sensitive assays to determine translocation over a cellular monolayer and are frequently used to determine substrate affinity for ABC transporters by comparing cell lines that overexpress ABC transporters with their parental counterparts[24]–[26]. Since P-gp and BCRP are apically located transporters, a prerequisite for detecting substrate affinity for these transporters in a CETA is the capacity of a molecule to penetrate cell membranes. We therefore first confirmed that buparlisib could efficiently diffuse over a cellular monolayer using a conventional transwell set-up. […]
(§1) Conventional bidirectional transport assays (CTAs) and concentration equilibrium transport assays (CETAs) were performed as described previously. […] Transwell leakiness was determined as Carboxyl-[^14C]-inulin translocation exceeding 1.5% per hour and these wells were excluded from the analysis.
To prepare buparlisib transport assay samples for LC-MS/MS analysis, 10 μL medium samples were mixed with 30 μL of acetonitrile:formic acid (100:1 v/v). After centrifugation, the supernatant was 5-fold diluted in water and the buparlisib concentration was measured using an LC-MS/MS system as described below.

human BCRP (ABCG2) = target: T1, human BCRP (ABCG2) (Homo sapiens, UniProt Q9UNQ0); assay: Concentration equilibrium transport assay (CETA), MDCK-BCRP; type: in vitro ADME; conditions: 100 nM
T1 construct: expressed in transfected cells; host or cells: MDCK (MDCK-BCRP)
T1 sequence (Q9UNQ0 1-655): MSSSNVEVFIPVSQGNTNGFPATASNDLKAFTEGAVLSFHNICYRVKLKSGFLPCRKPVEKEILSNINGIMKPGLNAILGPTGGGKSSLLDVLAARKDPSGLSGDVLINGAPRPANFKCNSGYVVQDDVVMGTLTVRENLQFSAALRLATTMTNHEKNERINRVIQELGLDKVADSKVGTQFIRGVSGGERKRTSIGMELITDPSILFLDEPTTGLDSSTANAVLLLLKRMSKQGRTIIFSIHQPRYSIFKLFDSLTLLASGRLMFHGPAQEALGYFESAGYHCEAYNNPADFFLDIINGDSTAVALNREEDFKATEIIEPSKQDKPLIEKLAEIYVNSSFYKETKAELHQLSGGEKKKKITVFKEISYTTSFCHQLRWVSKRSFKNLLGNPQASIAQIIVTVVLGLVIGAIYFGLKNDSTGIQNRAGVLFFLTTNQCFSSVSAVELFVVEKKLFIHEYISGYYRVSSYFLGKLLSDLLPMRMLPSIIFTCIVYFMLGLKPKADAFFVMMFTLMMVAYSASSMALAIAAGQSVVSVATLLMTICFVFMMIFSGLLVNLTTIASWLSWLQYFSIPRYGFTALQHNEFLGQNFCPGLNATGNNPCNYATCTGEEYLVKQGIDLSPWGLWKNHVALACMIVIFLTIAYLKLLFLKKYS
Source text: Figure 1 Analysis of buparlisib substrate affinity for ABC transporters using in vitro transport assays. (A) The chemical structure of buparlisib. (B) A conventional transport assay (CTA) using LLC-PK1 cells in presence of zosuquidar to block endogenous (porcine) P-gp activity. […] (C) Concentration equilibrium transport assays (CETAs) using MDCK or LLC cells that overexpress murine BCRP, (Bcrp1), human BCRP, murine P-gp (Mdr1a) or human P-gp (MDR1). […] The P-gp inhibitor zosuquidar was used in all MDCK cell lines to inhibit endogenous P-gp activity and in LLC cell lines to validate possible P-gp-mediated translocations. […]
as §1, with “analysis. […]” for “analysis.”
As described in detail before, CETA results were analysed with the General linear model repeated measures procedure of SPSS (v22; SPSS Inc, Chicago, IL)[25]. […] The standard error of the oral bioavailability was calculated using the formula below: SEF=F(SEAUCp.o./AUCp.o.)^2+(SEAUCi.v./AUCi.v.)^2 Buparlisib concentrations in WT and transporter knockout mice in vivo were compared using one-way analysis of variance followed by post hoc Bonferroni tests. […]

## Nc1cc(C(F)(F)F)c(-c2cc(N3CCOCC3)nc(N3CCOCC3)n2)cn1 [buparlisib]
LLC-PK1 cells
  time to plateau to almost complete equilibrium between apical and basal compartments: ≤ 4 h
Human BCRP (ABCG2)
  substrate of human BCRP: not a substrate
